Patent US8163909B2, “Substituted hydroxyethyl amine compounds as beta-secretase modulators and methods of use” (Amgen Inc., priority 2007, dated 2012)
Where two headings read alike, the source gives them in different places. One block for each compound: values may come before it.

How the values were obtained:
[1] = rat, microsomes, 1 μM, pH 7.4
[2] = human, microsomes, 1 μM, pH 7.4
[3] = target: CYP2D6 (Homo sapiens, UniProt P10635); experiment: CYP2D6 inhibition assay (bufuralol, pooled human liver microsomes)
Chain of CYP2D6 (P10635 whole entry): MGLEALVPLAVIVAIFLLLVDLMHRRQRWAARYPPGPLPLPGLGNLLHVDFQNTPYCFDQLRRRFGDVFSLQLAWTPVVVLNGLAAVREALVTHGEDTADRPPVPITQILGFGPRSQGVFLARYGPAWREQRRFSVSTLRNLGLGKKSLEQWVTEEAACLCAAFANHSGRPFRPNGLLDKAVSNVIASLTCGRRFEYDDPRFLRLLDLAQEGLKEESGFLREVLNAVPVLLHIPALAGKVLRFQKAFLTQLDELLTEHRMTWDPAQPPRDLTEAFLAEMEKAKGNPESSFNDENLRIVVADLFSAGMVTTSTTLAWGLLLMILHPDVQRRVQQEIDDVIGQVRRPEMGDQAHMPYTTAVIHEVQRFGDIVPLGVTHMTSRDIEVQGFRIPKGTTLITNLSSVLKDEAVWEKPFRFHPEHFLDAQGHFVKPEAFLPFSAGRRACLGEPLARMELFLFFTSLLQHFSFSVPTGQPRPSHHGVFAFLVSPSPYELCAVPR

[4] = system: Aβ40 in conditioned medium of cells stably expressing Amyloid Precursor Protein (APP); experiment: In vitro BACE cell-based assay (Aβ40 in conditioned medium, sandwich ELISA);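 further: compounds added as a dilution series, secreted peptide quantified by europium time-resolved fluorescence readout, potency fitted from percent of control versus compound concentration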
[5] = target: CYP3A (Homo sapiens, UniProt P08684); settings: CYP3A4 inhibition; for IC50: read-out: 3A4 IC50
Chain of CYP3A (P08684 2-503): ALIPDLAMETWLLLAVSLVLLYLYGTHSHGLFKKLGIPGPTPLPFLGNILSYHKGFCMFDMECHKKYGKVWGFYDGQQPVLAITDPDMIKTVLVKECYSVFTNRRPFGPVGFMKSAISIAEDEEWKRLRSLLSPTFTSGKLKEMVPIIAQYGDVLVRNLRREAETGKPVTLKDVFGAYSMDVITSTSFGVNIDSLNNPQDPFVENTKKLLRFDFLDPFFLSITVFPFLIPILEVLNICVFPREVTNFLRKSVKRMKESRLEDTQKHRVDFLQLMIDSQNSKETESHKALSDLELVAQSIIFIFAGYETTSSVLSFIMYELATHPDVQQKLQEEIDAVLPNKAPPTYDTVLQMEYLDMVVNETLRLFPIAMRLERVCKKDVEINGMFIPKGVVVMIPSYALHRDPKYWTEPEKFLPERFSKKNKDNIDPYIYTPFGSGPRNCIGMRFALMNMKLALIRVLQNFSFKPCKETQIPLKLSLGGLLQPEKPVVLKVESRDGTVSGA

[6] = Microsomal stability assay, rat liver microsomes; settings: rat liver microsomes;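 further: rat liver microsomes (0.25 mg/mL) with about 1 µM compound plus 1 mM NADPH, pH 7.4, 37 °C for 30 min, parent left measured by LC-MS/MS against 0 min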
[7] = target: Beta Secretase enzyme (BACE) (Homo sapiens, UniProt P56817); experiment: In vitro enzymatic BACE FRET (fluorescence resonance energy transfer) assay; assay type: biochemical;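 further: fluorescence read after 1 h with 50 nM quenched peptide substrate spanning the BACE cleavage site, in pH 4.2 acetate buffer containing 10% DMSO and nonionic detergent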
Chain of Beta Secretase enzyme (BACE) (P56817 46-501): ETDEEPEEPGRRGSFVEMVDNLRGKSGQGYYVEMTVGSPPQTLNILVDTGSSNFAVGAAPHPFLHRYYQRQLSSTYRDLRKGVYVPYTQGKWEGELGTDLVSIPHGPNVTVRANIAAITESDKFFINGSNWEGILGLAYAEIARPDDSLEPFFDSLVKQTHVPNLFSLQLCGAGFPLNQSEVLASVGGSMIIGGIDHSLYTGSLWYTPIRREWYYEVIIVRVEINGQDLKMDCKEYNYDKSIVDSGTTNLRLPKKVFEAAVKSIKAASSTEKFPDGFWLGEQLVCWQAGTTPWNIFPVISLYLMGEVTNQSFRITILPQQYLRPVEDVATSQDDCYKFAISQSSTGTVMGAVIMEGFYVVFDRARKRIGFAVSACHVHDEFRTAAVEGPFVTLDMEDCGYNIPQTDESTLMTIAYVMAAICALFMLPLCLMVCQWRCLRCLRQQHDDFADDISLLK

[8] = Microsomal stability assay, human liver microsomes; settings: human liver microsomes;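 further: pooled human liver microsomes at 0.25 mg/mL with 1 µM compound and NADPH at 37 °C, pH 7.4, for 30 min, unchanged parent quantified by LC-MS/MS against the 0 min sample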
[9] = target: CYP3A4 (CYP3A) (Homo sapiens, UniProt P08684); experiment: in vitro; settings: microsomes, pH 7.4
Chain of CYP3A4 (CYP3A) (P08684 2-503): as the sequence (P08684 2-503) above

[10] = system: Abeta peptide; experiment: In vivo inhibition of beta-secretase (reduction of Abeta peptide in brain and cerebrospinal fluid); parameters: species or system rat; settings: po; rat cerebrospinal fluid, orally administered at 30 mg/kg dose, measured after 4 hours; read-out: percent reduction of abeta peptide in the cerebrospinal fluid of the rat;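 further: abeta peptide quantified by sandwich ELISA with electrochemiluminescence readout in rat brain supernatant or CSF, relative to vehicle-dosed control animals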
[11] = read-out: 2D6 IC50, CYP2D6 inhibition

RLM [1]: 101 µL/min/mg
HLM [2]: 54 µL/min/mg
SMILES: COCC(=O)N[C@@H](Cc1cccc(-c2nccs2)c1)[C@H](O)CN[C@H]1C[C@]2(CCOC2)Oc2ncc(CC(C)(C)C)cc21 [compound 822]

RLM [1]: 86 µL/min/mg
HLM [2]: 14 µL/min/mg
SMILES: C#Cc1cccc(C[C@H](NC(=O)COC)[C@H](O)CN[C@H]2C[C@]3(CCOC3)Oc3ncc(CC(C)(C)C)cc32)c1 [compound 868]

SMILES: CC(=O)N[C@@H](Cc1ccc(F)c(-c2cscn2)c1)[C@H](O)CN[C@H]1CC2(CCC2)Oc2ccc(CC(C)(C)C)cc21 [Example 436, N-((2S,3R)-4-((S)-2,2-spirocyclobutyl-6-neopentyl-3,4-dihydro-2H-chromen-4-ylamino)-1-(4-fluoro-3-(thiazol-4-yl)phenyl)-3-hydroxybutan-2-yl)acetamide]
IC50 [3, 11]: 2.2 µM
IC50 ([4]; HEK cell-based assay IC50, read-out: HEK cell assay): 24 nM
IC50 [5]: 200 nM
RLM [6]: 78 µL/min/mg
IC50 ([7]; BACE enzyme assay IC50, read-out: BACE1 FRET assay): 5 nM
HLM [8]: 135 µL/min/mg

SMILES: COCC(=O)N[C@@H](Cc1cc(F)cc(F)c1)[C@H](O)CN[C@H]1CC2(CCC2)Oc2c1cc([C@H]1CC1(C)C)nc2-c1ccncc1 [compound 703]
RLM [1]: 118 µL/min/mg
HLM [2]: 32 µL/min/mg
3A4 IC50 [5]: 200 nM

RLM [1]: 171 µL/min/mg
HLM [2]: 57 µL/min/mg
SMILES: COCC(=O)N[C@@H](Cc1cccc(-c2nccs2)c1)[C@H](O)CN[C@H]1C[C@@]2(CCOC2)Oc2ncc(CC(C)(C)C)cc21 [compound 823, N-((1S,2R)-3-(((3S,4′S)-6′-(2,2-dimethylpropyl)-3′,4,4′,5-tetrahydrospiro[furan-3,2′-pyrano[2,3-b]pyridin]-4′-yl)amino)-2-hydroxy-1-(3-(1,3-thiazol-2-yl)benzyl)propyl)-2-methoxyacetamide]

RLM [1]: 112 µL/min/mg
HLM [2]: 40 µL/min/mg
SMILES: COCC(=O)N[C@@H](Cc1cccc(-c2nccs2)c1)[C@H](O)CN[C@H]1C[C@@]2(CCOC2)Oc2ncc(CC(C)(C)C)cc21 [compound 814, N-((1S,2R)-3-(((3S,4′S)-6′-(2,2-dimethylpropyl)-3′,4,4′,5-tetrahydrospiro[furan-3,2′-pyrano[2,3-b]pyridin]-4′-yl)amino)-2-hydroxy-1-(3-(1,3-thiazol-2-yl)benzyl)propyl)-2-methoxyacetamide]

RLM [1]: 28 µL/min/mg
HLM [2]: 21 µL/min/mg
SMILES: C#Cc1cccc(C[C@H](NC(=O)COC)[C@H](O)CN[C@H]2C[C@]3(CCOC3)Oc3ncc(CC(C)(C)C)cc32)c1 [compound 824]

SMILES: COCC(=O)N[C@@H](Cc1ccc(F)cc1)[C@H](O)CN[C@H]1CC2(CCC2)Oc2c1cc(CC(C)(C)C)nc2-c1c[nH]cn1 [Example 529]
RLM [1]: 40 µL/min/mg
IC50 [9]: 100 nM
IC50 ([3]; 2D6 IC50 (uM), CYP enzyme inhibition): 0.7 µM
HLM [2]: 37 µL/min/mg
IC50 ([4]; Homo sapiens, HEK293, HEK cells, read-out: HEK cell assay): 12 nM
inhibition in vivo at 30 mg/kg [10]: 10 to 80%
IC50 ([7]; BACE enzyme assay, read-out: BACE1 FRET assay): 23 nM

SMILES: CC(=O)N[C@@H](Cc1cc(F)cc(-c2nccs2)c1)[C@H](O)CN[C@H]1CC2(CCC2)Oc2ncc(CC(C)(C)C)cc21 [Example 435, N-((2S,3R)-4-((S)-2,2-spirocyclobutyl-6-neopentyl-3,4-dihydro-2H-pyrano[2,3-b]pyridin-4-ylamino)-1-(3-fluoro-5-(thiazol-2-yl)phenyl)-3-hydroxybutan-2-yl)acetamide]
IC50 [3, 11]: 0.3 µM
IC50 ([4]; HEK cells, read-out: HEK cell assay (IC50)): 39 nM
IC50 [5]: 1400 nM
RLM [6]: 197 µL/min/mg
IC50 ([7]; read-out: BACE1 FRET assay (IC50)): 6 nM
HLM [8]: 125 µL/min/mg

SMILES: COCC(=O)N[C@@H](Cc1cc(F)cc(F)c1)[C@H](O)CN[C@H]1CC2(CCC2)Oc2c1cc([C@H]1CC1(C)C)nc2-c1ccncc1 [compound 678]
RLM [1]: 79 µL/min/mg
HLM [2]: 23 µL/min/mg
